In US10059715B2, “Acid addition salt of ibrutinib” (ratiopharm GmbH, priority 2014, dated 2018):
In brackets after ≈: the same amount, converted by molar mass. Where a name gives a salt, the structure may show the parent alone.

Experiments:
[1] = Comparison of solubilities at pH values relevant for the gastrointestinal tract
[2] = at about pH 8; cited from earlier work
physchem = conditions: 37 °C, thermodynamic from solid
[3] = 20 mMol NaAc solution, pH 4.5, aqueous buffer

`C=CC(=O)N1CCC[C@@H](n2nc(-c3ccc(Oc4ccccc4)cc3)c3c(N)ncnc32)C1` [base, 1-[(3R)-3[4-Amino-3-(4-phenoxyphenyl)-1H-pyrazolo[3,4-d]pyrimidin-1-yl]piperidin-1-yl]prop-2-en-1one] showed a solubility ([1]; pH 1.2 (0.1M HCl), 15 min, listed as ibrutinib base (form A)) of 2070 µg/mL (≈ 4700 µM), a solubility ([1]; pH 1.2 (0.1M HCl), 1 h) of 2640 µg/mL (≈ 5990 µM) and a solubility ([1]; pH 1.2 (0.1M HCl), 24 h) of 2640 µg/mL (≈ 5990 µM). The solubility ([1]; pH 4.5 (20 mMol NaAc), 1 h, 37° C.) was 10 µg/mL (≈ 22.7 µM), the solubility ([1]; pH 4.5 (20 mMol NaAc), 24 h, 37° C.) was 10 µg/mL (≈ 22.7 µM) and the “solubility (in words)” value ([1]; pH 4.5, time not stated) was “substantially insoluble”. For the same compound, the solubility ([1]; pH 6.8 (50 mMol KH2PO4), 1 h, 37° C.) was 10 µg/mL (≈ 22.7 µM), the solubility ([1]; pH 6.8 (50 mMol KH2PO4), 24 h, 37° C.) was 10 µg/mL (≈ 22.7 µM) and the “solubility (in words)” value ([1]; pH 6.8, time not stated) was “substantially insoluble”. For the same compound, the observed aqueous solubility [2] was “about 0.013 mg/ml”, the solubility at 15 min (physchem; [3]) was 10 µg/mL (≈ 22.7 µM) and the solubility at 15 min (physchem; 50 mMol KH2PO4 solution, pH 6.8, aqueous buffer) was 10 µg/mL (≈ 22.7 µM).

In the case of `C=CC(=O)N1CCC[C@@H](n2nc(-c3ccc(Oc4ccccc4)cc3)c3c(N)ncnc32)C1` [HCl, ibrutinib hydrochloride], the solubility ([1]; pH 1.2 (0.1M HCl), 15 min, listed as crystalline ibrutinib hydrochloride, hydrochloride) is reported as 7370 µg/mL, the solubility ([1]; pH 1.2 (0.1M HCl), 1 h, hydrochloride) is reported as 7720 µg/mL and the solubility ([1]; pH 1.2 (0.1M HCl), 24 h, hydrochloride) is reported as 7380 µg/mL. It also gave a solubility ([1]; pH 4.5 (20 mMol NaAc), 15 min) of 10 µg/mL, a solubility ([1]; pH 4.5 (20 mMol NaAc), 24 h, 37° C., hydrochloride) of 460 µg/mL and a solubility ([1]; pH 6.8 (50 mMol KH2PO4), 15 min) of 10 µg/mL. For the same compound, the solubility ([1]; pH 6.8 (50 mMol KH2PO4), 1 h, 37° C., hydrochloride) was 50 µg/mL, the solubility ([1]; pH 6.8 (50 mMol KH2PO4), 24 h, 37° C., hydrochloride) was 410 µg/mL and the solubility at 1 h (physchem; [3]) was 20 µg/mL.
